Where “and” joins values, the source holds several entries; their conditions need not be identical. Identical values can stand only once. Some results are limits rather than exact numbers.

A short description of series [1]: Urinary recovery of cyclic acetal and conversion to bisphosphonate after IV administration to rats. The class given is in vivo, rat. The settings on record: for dosed cyclic acetal converted to risedronate: male, Sprague-Dawley. On the procedure: (§1) Male, Sprague-Dawley, rats weighing approximately 200-400 g were studied.
(§2) All formulations were prepared within approximately 1 hour of dosing.
Generally, animals were administered a 1.7 micromole/kg, 2 ml/kg IV dose (tail vein) of the appropriate formulation using a syringe and attached butterfly needle. All animals remained fasted for an additional 4 hours post dose and were returned to ad libitum access to food thereafter.
(§3) Urine samples were collected into refrigerated plastic conical tubes at approximately 4, 8 and 24 hours post-dose. At the end of each collection period, samples were weighed and transferred to a −70° C. freezer for storage until analyzed.
The absorbed risedronate is stable in vivo and is not metabolized. After IV administration of risedronate to rats, about 60% of risedronate binds to bone and about 40% of risedronate dosed is excreted in urine. When risedronate cyclic acetal compounds are administered intravenously to rats, a percentage of the cyclic acetal can remain intact and can be excreted in urine while a percentage of the cyclic acetal can be converted to risedronate in vivo. Assuming risedronate formed in vivo has the similar tissue distribution profile as described above, about 40% of risedronate generated in vivo will be excreted in urine and about 60% of risedronate generated in vivo will bind to bone. Thus, the percentage of the cyclic acetal which is converted to risedronate in vivo is estimated using Formula A: […]
Risedronate cyclic acetal compounds were administered intravenously in saline (0.9% sodium chloride).

Series [2] can be described thus: Solubility in water (remark in synthesis example). As to conditions: calcium salt. The class given is physicochemical.
Series [3] relates to Sprague Dawley rats (Schenk Model). Put plainly: Schenk Model: bone mineral density of proximal tibial metaphysis by DXA. The format is in vivo, rat. The settings on record: for D20, 20% > BMD than control / LED (lowest effective dose): SQ once daily for 7 days, rats; for D20, 20% > BMD than control: logistic dose response relationship; for LED (lowest effective dose): significant anti-resorptive dose vs control; for bone density in the rat proximal tibial metaphysis: Schenk Model. On the procedure: The effect of the compounds (Example 62 (trans) and Example 128) on in vivo bone resorption inhibition and mineralization inhibition was evaluated in the Schenk Model, an animal model system known in the field of bone metabolism. The general principles of this model are disclosed in Shinoda et al., Calcif. Tissue Int., 35: 87-99 (1983); and in Schenk et al., Calcif: Tissue Res. 11: 196-214 (1973).
Male Sprague Dawley rats approximately 6 weeks old with weights ranging between 120 and 150 grams were placed into groups based on body weight, with 4-8 animals per group. All groups received treatment by subcutaneous injection (SQ) once daily for 7 days.
On day 7 after the start of dosing, all animals were euthanized via exsanguination under gas anesthesia and/or CO2. The right tibia and femur were dissected free and placed in 70% ethyl alcohol.
The proximal metaphysis of the right tibia was analyzed using dual energy x-ray absorptiometry (DXA). This provides information on changes in both cortical and cancellous bone density. The primary end-point for this study was bone mineral density (BMD) in the tibia measured using Hologics QDR-4500 densitometer (Hologics, Inc). Statistical evaluation of data was made using parametric and non-parametric analysis of variance and Fisher's protected t-test to determine a statistically significant effect compared to control animals, defined as the lowest effective (significant anti-resorptive) dose (LED).
The dose which increased (BMD) 20% compared to the vehicle group (D20) was calculated via a logistic dose response relationship, which estimates an efficacy value using all animals in the study (Lundy et al., J. Bone Min. Res. 22 (Suppl. 1): S443, (2007)).

Series [4] in a line: Urinary recovery / risedronate exposure after intraduodenal (ID) and oral (PO) administration to fasted and fed rats. The class given is in vivo, rat. As to conditions: for Amount Excreted: Risedronate (risedronate administered): dose 17 micromole/kg, rats. The protocol:
as §1, §2
The appropriate test article formulation was administered to each animal as a 17 micromole/kg, 2 mL/kg dose solution in 0.6% methylcellulose/0.2% Tween 80® by oral gavage. Alternatively, animals were dosed with a 17 micromole/kg, 1 mL/kg dose solution in saline through a cannula into the duodenum. Animals in the fasted groups were fasted for approximately 4 hours after dosing and were returned to ad libitum access to food thereafter. Animals in the fed groups had access to food ad libitum for at least 2 hours prior to dosing, and throughout the day post dose.
as §3
Example 62 (trans) and risedronate were administered via intraduodenal (ID) and oral administration to fasted and fed rats. Similar to the procedure described above in relation to the IV study, the urine of the rats was collected, and risedronate was recovered from urine. Risedronate exposure following ID and oral administration was calculated as percentage of the recovered risedronate from the dosed cyclic acetal (Formula A), and the results were compared to that from dosing with risedronate, See Table 4.

Where [5] appears, read: IV, dose 1.7 micromole/kg, rats, % CV in parentheses.
The mark [6] stands for this setting: after IV administration of risedronate to rats.

Turning to `CC(=O)Oc1ccc(C2OP(=O)(O)C(O)(Cc3cccnc3)P(=O)(O)O2)cc1` (centres unmarked) [Example 28], the “urinary recovery of the cyclic acetal” value in series [1] (rat, in vivo, iv) was “very low”. Turning to `CCCC(=O)Oc1ccc(C2OP(=O)(O)C(O)(Cc3cccnc3)P(=O)(O)O2)cc1` (centres unmarked) [Example 29], in series [1] (rat, in vivo, iv), the “dosed cyclic acetal converted to risedronate” value was > 100% and the “urinary recovery of the cyclic acetal” value was “very low”. With `CCCC(=O)Oc1ccc(C2OP(=O)(O)C(O)(Cc3cccnc3)P(=O)(O)O2)cc1F` (centres unmarked) [Example 30], in series [1] (rat, in vivo, iv), the “urinary recovery of the cyclic acetal” value is listed as “very low”. Still for that read-out and setting: the same measure for `CC(C)C(=O)Oc1ccc(C2OP(=O)(O)C(O)(Cc3cccnc3)P(=O)(O)O2)cc1` (stereo not drawn) [Example 33 (trans)]: “very low”.

For `CCOC(=O)Oc1ccc(C2OP(=O)(O)C(O)(Cc3cccnc3)P(=O)(O)O2)cc1` (centres unmarked) [Example 36], the “systemic exposure of cyclic acetal and risedronate” value (from here on “systemic exposure”) in series [1] (rat, in vivo, iv) is “both systemic exposure of the cyclic acetal and risedronate”. On to `CC(C)=CC(=O)Oc1ccc(C2OP(=O)(O)C(O)(Cc3cccnc3)P(=O)(O)O2)cc1F` (centres unmarked) [Example 47], for which, in series [1] (rat, in vivo, iv), the “urinary recovery of the cyclic acetal” value was “very low”. As for `COC(=O)Oc1ccccc1C1OP(=O)(O)C(O)(Cc2cccnc2)P(=O)(O)O1` (stereo not drawn) [Example 50 (trans)], the “systemic exposure” value in series [1] (rat, in vivo, iv) is “both systemic exposure of the cyclic acetal and risedronate”. Take `O=C(Oc1c(F)cccc1C1OP(=O)(O)C(O)(Cc2cccnc2)P(=O)(O)O1)N1CCOCC1` (centres unmarked) [Example 53]: the solubility in water entry in series [2] is “very low”. In the case of `CC(C)OC(=O)Oc1ccccc1C1OP(=O)(O)C(O)(Cc2cccnc2)P(=O)(O)O1` (stereo not drawn) [Example 62 (trans)], in series [1] (rat, in vivo, iv), the “risedronate release rate into the bloodstream vs risedronate” value was “slower”; the “systemic exposure” value was “both systemic exposure of the cyclic acetal and risedronate”. Further, in series [3], the “D20, 20% > BMD than control” value amounted to 5 mcg P/kg; the “LED (lowest effective dose)” value is 3 mcg P/kg; the “bone density in the rat proximal tibial metaphysis” value is given as “efficacious”. `CC(C)OC(=O)Oc1ccc(C2OP(=O)(O)C(O)(Cc3cccnc3)P(=O)(O)O2)c(F)c1` (centres unmarked) [Example 63]: in series [1] (rat, in vivo, iv), the “urinary recovery of the cyclic acetal” value is given as “very low”. Consider `O=C(Cc1ccccc1)Oc1ccc(C2OP(=O)(O)C(O)(Cc3cccnc3)P(=O)(O)O2)cc1` (stereo not drawn) [Example 79 (trans)], for which the “Amount of Cyclic Acetal Excreted” value in series [1] (setting [5]) is given as 0.3 (220) % of administered dose excreted in urine. As to `O=C(Cc1ccccc1)Oc1ccc(C2OP(=O)(O)C(O)(Cc3cccnc3)P(=O)(O)O2)cc1` (centres unmarked) [Example 79], the “urinary recovery of the cyclic acetal” value in series [1] (IV, rats, rapid rate of conversion to risedronate in vivo) is listed as “very low”.

For the compound `O=C1OCCN1C(=O)Oc1ccccc1C1OP(=O)(O)C(O)(Cc2cccnc2)P(=O)(O)O1` (centres unmarked) [Example 82], the “dosed cyclic acetal converted to risedronate” value in series [1] (rat, in vivo, iv) came out at 43%. Turning to `CC1(C)CN(C(=O)Oc2cc(F)c(C3OP(=O)(O)C(O)(Cc4cccnc4)P(=O)(O)O3)c(F)c2)C(=O)O1` (centres unmarked) [Example 83], in series [1] (rat, in vivo, iv), the “urinary recovery of the cyclic acetal” value is on record as “very low”. Same read-out and setting: the same measure for `CCCC(=O)Oc1ccccc1C1OP(=O)(O)C(O)(Cc2cccnc2)P(=O)(O)O1` (centres unmarked) [Example 105]: “very low”. On to `CC(C)OC(=O)Oc1ccccc1C1OP(=O)(O)C(O)(Cn2ccnc2)P(=O)(O)O1` (centres unmarked) [Example 128, Carbonic acid isopropyl ester 2-(2,3,4-trihydroxy-3-imidazol-1-ylmethyl-2,4-dioxo-2λ^5,4λ^5-[1,5,2,4]dioxadiphosphinan-6-yl)-phenyl ester], for which, in series [3], the “D20, 20% > BMD than control” value stood at 0.5 mcg P/kg; the “LED (lowest effective dose)” value worked out at 1 mcg P/kg; the “bone density in the rat proximal tibial metaphysis” value is reported as “efficacious”. Regarding `O=P(O)(O)C(O)(Cc1cccnc1)P(=O)(O)O` [Risedronate, risedronate, reference compound], the “Amount Excreted: Risedronate (risedronate administered)” value in series [1] (setting [5]) was 36 (13) % of administered dose excreted in urine and 39 % of administered dose excreted in urine; in series [4] (ID fed, % CV in parentheses) it was 0.012 (50) % of administered dose excreted in urine; in series [4] (Oral fast) it was 0.13 % of administered dose excreted in urine; in series [4] (Oral fed), 0.003 % of administered dose excreted in urine. For the same compound, in series [1] (setting [6]), the “risedronate binds to bone” value is on record as “about 60%”. In series [1] (setting [6]), the “risedronate dosed excreted in urine” value is listed as “about 40%”. The “risedronate exposure with food compared to fasted rats” value in series [4] (fed rats) was “extensive reduction”. The “risedronate exposure as estimated by urinary recovery” value in series [4] (orally to fasted rats) was “less than 1 % of dose”. Moreover, the “D20, 20% > BMD than control” value in series [3] is on record as 1.8 mcg P/kg. Further, the “LED (lowest effective dose)” value in series [3] was determined as 1 mcg P/kg.

Take `O=P(O)(O)C(O)(Cn1ccnc1)P(=O)(O)O` [Zoledronic acid, (1-hydroxy-2-imidazol-1-yl)-ethyl-1,1-bisphosphonic acid, reference compound]: in series [3], the “D20, 20% > BMD than control” value is 0.1 mcg P/kg and the “LED (lowest effective dose)” value is recorded as 0.1 mcg P/kg.

The values are drawn from patent US8822435B2, “Bisphosphonate compounds” (Warner Chilcott Company, LLC, priority 2009, dated 2014).
